Drawing on patent US4581354A, “3-arylcarbonyl- and 3-cycloalkylcarbonyl-1-aminoalkyl-1H-indoles, compositions and use” (Sterling Drug Inc., priority 1985, dated 1986), this text covers inhibition in vivo and ED50 for 45 compounds.

Counter-ions that a name gives are not always drawn.

The first assay deals with acetylcholine-induced abdominal constriction. Kind of assay: animal or person. In kind it is in vivo, mice. As to conditions: Mus musculus, iv, 3 mg./kg. i.v.; read-out: Ach percent inhibition.
Consider `Cc1c(C(=O)c2cccc3ccccc23)c2ccccc2n1CC(O)CN1CCCC1` (stereo not shown) [Example 31F], for which the inhibition in vivo at 3 mg/kg amounted to 0%.

Still in this assay, the particulars now being: Mus musculus, iv, 10 mg./kg. i.v.; read-out: Ach percent inhibition.
For the compound `COc1ccc(C(=O)c2c(C)n(CC(O)CN3CCCC3)c3ccccc23)cc1` (stereo not shown) [Example 31H], the inhibition in vivo at 10 mg/kg was found to be 80%.

Still in this assay, the particulars now being: Mus musculus, po, 100 mg./kg. oral; Table D, formula II intermediates (Preparations); read-out: Ach percent inhibition.
Turning to `Cc1[nH]c2ccccc2c1C(=O)c1ccccc1-c1ccccc1` [Preparation 1AK], the inhibition in vivo at 100 mg/kg stood at 20%. Same read-out and setting: to `Cc1[nH]c2ccccc2c1C(=O)c1ccc(-c2ccccc2)cc1` [Preparation 1AL] belongs 20%; to `COc1cc(OC)cc(C(=O)c2c(C)[nH]c3ccccc23)c1` [Preparation 1AO], 40%.

The assay is the same for the next values; noted with them: Mus musculus, po, 100 mg./kg. oral; read-out: Ach percent inhibition.
With `Cc1c(C(=O)c2ccc(-n3cccc3)cc2)c2ccccc2n1CCN1CCOCC1` [Example 14, 2-methyl-3-[4-(1H-pyrrol-1-yl)benzoyl]-1-[2-(4-morpholinyl)ethyl]-1H-indole], the inhibition in vivo at 100 mg/kg came out at 40%. On to `Cc1c(C(=O)c2ccccc2O)c2ccccc2n1CCN1CCOCC1` [Example 16A, 2-methyl-3-(2-hydroxybenzoyl)-1-[2-(4-morpholinyl)ethyl]-1H-indole], for which the inhibition in vivo at 100 mg/kg worked out at 10%. With `Cc1c(C(=O)c2ccc(O)cc2)c2cc(F)ccc2n1CCCN1CCOCC1` [Example 16B, 5-fluoro-2-methyl-3-(4-hydroxybenzoyl)-1-[3-(4-morpholinyl)propyl]-1H-indole hydrochloride], the inhibition in vivo at 100 mg/kg was found to be 20%. For the compound `COc1ccc(C(=O)c2c(C)n(CCN3CCOCC3)c3cc(O)ccc23)cc1` [Example 18, 6-hydroxy-2-methyl-3-(4-methoxybenzoyl)-1-[2-(4-morpholinyl)ethyl]-1H-indole hydrochloride hydrate (3:4)], the inhibition in vivo at 100 mg/kg was 30%. On the same count and under the same terms, to `COc1ccc(C(=O)C=Cc2c(C)n(CCN3CCOCC3)c3ccccc23)cc1` [Example 19, 1-{2-methyl-1-[2-(4-morpholinyl)ethyl]-1H-indol-3-yl}-3-(4-methoxyphenyl)propen-3-one monohydrochloride] belongs 40%. The same measure, in the same setting: the same measure for `Cc1c(C(=O)C=Cc2ccccc2F)c2ccccc2n1CCN1CCOCC1` [Example 20B, 3-(2-fluorocinnamoyl)-2-methyl-1-[2-(4-morpholinyl)ethyl]-1H-indole]: 40%. As to `COCCNc1ccc(C(=O)c2c(C)n(CCN3CCOCC3)c3ccccc23)cc1` [Example 26A, 2-methyl-3-[4-(2-methoxyethylamino)benzoyl]-1-[2-(4-morpholinyl)ethyl]-1H-indole], the inhibition in vivo at 100 mg/kg worked out at 40%. The same measure, in the same setting: the same measure for `Cc1c(C(=O)c2ccc(N3CCCC(O)C3)cc2)c2ccccc2n1CCN1CCOCC1` (stereo not shown) [Example 26B]: 40%. `Cc1c(C(=O)c2ccc(N3CCNCC3)cc2)c2ccccc2n1CCN1CCOCC1` [Example 26C]: the inhibition in vivo at 100 mg/kg worked out at 30%. On the same count and under the same terms, to `Cc1c(C(=O)c2ccc(N3CCC(O)CC3)cc2)c2ccccc2n1CCN1CCOCC1` [Example 26D] belongs 30%; to `Cc1c(C(=O)c2ccc(N3CCOCC3)cc2)c2ccccc2n1CCN1CCOCC1` [Example 26G], 20%; to `COc1ccc(C(=O)c2c(C)n(CCCNCCCCl)c3ccccc23)cc1` [Example 28, 1-[3-(3-chloropropylamino)propyl]-2-methyl-3-(4-methoxybenzoyl)-1H-indole hydrochloride], 90%.

As for `COc1ccc(C(=O)c2c(C)n(CCCN3CC[S+]([O-])CC3)c3ccc(F)cc23)cc1` [Example 29A, 5fluoro-2-methyl-3-(4-methoxybenzoyl)-1-[3-(4-thiomorpholinyl)propyl]-1H-indole S-oxide maleate], the inhibition in vivo at 100 mg/kg was found to be 60%. Still for that read-out and setting: to `COc1ccc(C(=O)c2c(C)n(CCN3CC[S+]([O-])CC3)c3ccccc23)cc1` [Example 29B, 2-methyl-3-(4-methoxybenzoyl)-1-[2-(4-thiomorpholinyl)ethyl]-1H-indole S-oxide maleate] belongs 60%; to `COc1ccc(C(=O)c2c(C)n(CC[N+]3([O-])CC[S+]([O-])CC3)c3ccccc23)cc1` (stereo not shown) [Example 29C, 2-methyl-3-(4-methoxybenzoyl)-1-[2-(4-thiomorpholinyl)ethyl]-1H-indole S,N-dioxide dihydrate], 0%. Still for that read-out and setting: the same measure for `Cc1c(C(=O)c2ccccc2)c2cc(O)ccc2n1CCN1CCOCC1` [Example 30, 3-benzoyl-5-hydroxy-2-methyl-1-[2-(4-morpholinyl)ethyl]-1H-indole]: 10%; for `CCN(CC)CC(O)Cn1c(C)c(C(=O)c2ccc(OC)cc2)c2ccccc21` (stereo not shown) [Example 31-O]: 100%. Same read-out and setting: the same measure for `COc1ccc(C(=O)c2c(C)n(CC(O)CN=[N+]=[N-])c3ccccc23)cc1` (stereo not shown) [Example 31J, 1-(3-azido-2-hydroxy-1-propyl)-2-methyl-3-(4-methoxybenzoyl)-1H-indole]: 10%.

Consider `CCNCC(O)Cn1c(C)c(C(=O)c2ccc(OC)cc2)c2ccccc21` (stereo not shown) [Example 31N], for which the inhibition in vivo at 100 mg/kg was found to be 90%.

The assay is the same for the next values; noted with them: Mus musculus, po; read-out: Ach ED50.
By ED50 is commonly meant the dose that gives a 50% effect, or the effect in half of the subjects. Consider `COc1ccc(C(=O)c2c(C)n(CC[N+]3([O-])CCOCC3)c3ccccc23)cc1` [Example 15, 2-methyl-3-(4-methoxybenzoyl)-1-[2-(4-morpholinyl)ethyl]-1H-indole/N(MOR)-oxide], for which the ED50 was determined as 155 mg/kg. Turning to `Cc1ccccc1C=CC(=O)c1c(C)n(CCN2CCOCC2)c2ccccc12` [Example 20A, 3-(2-methylcinnamoyl)-2-methyl-1-[2-(4-morpholinyl)ethyl]-1H-indole], the ED50 was 128 mg/kg. The same measure, in the same setting: the same measure for `COc1ccc(C(=O)c2c(C)n(CCN3CCCC(OC(C)=O)C3)c3ccccc23)cc1.O=C(O)/C=C\C(=O)O` (stereo not shown) [Example 21, 1-[2-(3-acetoxy-1-piperidinyl)ethyl]-2-methyl-3-(4-methoxybenzoyl)-1H-indole maleate (1:1)]: 31 mg/kg; for `CCOC(=O)N1CCN(CCn2c(C)c(C(=O)c3ccc(OC)cc3)c3ccccc32)CC1.O=C(O)/C=C\C(=O)O` [Example 22, 1-[2-(4-carbethoxy-1-piperazinyl)ethyl]-2-methyl-3-(4-methoxybenzoyl)-1H-indole maleate (1:1)]: 66.8 mg/kg. Still for that read-out and setting: the same measure for `COc1ccc(C(=O)c2c(C)n(CCN3CCN(C(C)=O)CC3)c3ccccc23)cc1.O=C(O)/C=C\C(=O)O` [Example 23A, 1-[2-(4-acetyl-1-piperazinyl)ethyl]-2-methyl-3-(4-methoxybenzoyl)-1H-indole maleate (1:1)]: 85 mg/kg. Same read-out and setting: to `COc1ccc(C(=O)c2c(C)n(CCCN3CCN(C(C)=O)CC3)c3ccc(F)cc23)cc1.CS(=O)(=O)O` [Example 23B, 5-fluoro-2-methyl-3-(4-methoxybenzoyl)-1-[3-(4-acetyl-1-piperazinyl)propyl]-1H-indole methanesulfonate] belongs 39 mg/kg; to `COc1ccc(C(=O)c2c(C)n(CCCN)c3ccc(F)cc23)cc1.O=C(O)/C=C\C(=O)O` [Example 25A, 1-(3-aminopropyl)-5-fluoro-2-methyl-3-(4-methoxybenzoyl)-1H-indole maleate (1:1)], 82.5 mg/kg. As to `COc1ccc(C(=O)c2c(C)n(CCN)c3ccccc23)cc1.O=C(O)/C=C\C(=O)O` [Example 25B, 1-(2-aminoethyl)-2-methyl-3-(4-methoxybenzoyl)-1H-indole maleate], the ED50 was found to be 42 mg/kg.

Turning to `Cc1c(C(=O)c2ccc(-n3ccnc3)cc2)c2ccccc2n1CCN1CCOCC1` [Example 26E], the ED50 is 73.1 mg/kg.

For `Cc1c(C(=O)c2ccc(-n3ccnc3)cc2)c2cc(F)ccc2n1CCCN1CCOCC1` [Example 26F], the ED50 is 61 mg/kg.

`COc1ccc(C(=O)c2c(C)n(CCN3CCNCC3)c3ccccc23)cc1.CS(=O)(=O)O.CS(=O)(=O)O` [Example 27A, 2-methyl-3-(4-methoxybenzoyl)-1-[2-(1-piperazinyl)ethyl]-1H-indole dimethanesulfonate]: the ED50 turned out to be 20.7 mg/kg. Same read-out and setting: to `COc1ccc(C(=O)c2c(C)n(CCNCCO)c3ccccc23)cc1` [Example 27B, 1-[2-(2-hydroxyethylamino)ethyl]-2-methyl-3-(4-methoxybenzoyl)-1H-indole] belongs 59.8 mg/kg; to `COc1ccc(C(=O)c2c(C)n(CCN3CCCC(N)C3)c3ccccc23)cc1.O=C(O)/C=C\C(=O)O.O=C(O)/C=C\C(=O)O` (stereo not shown) [Example 27C, 1-[2-(3-amino-1-piperidinyl)ethyl]-2-methyl-3-(4-methoxybenzoyl)-1H-indole maleate (1:2)], 29.4 mg/kg.

Consider `COc1ccc(C(=O)c2c(C)n(CCCN3CCNCC3)c3ccc(F)cc23)cc1.CS(=O)(=O)O.CS(=O)(=O)O` [Example 27D, 5-fluoro-2-methyl-3-(4-methoxybenzoyl)-1-[3-(1-piperazinyl)propyl]-1H-indole dimethanesulfonate], for which the ED50 came out at 30 mg/kg. The same measure, in the same setting: the same measure for `COc1ccc(C(=O)c2c(C)n(CC(O)CN3CCOCC3)c3ccc(F)cc23)cc1.Cl.O` (stereo not shown) [Example 31A, 1-[2-hydroxy-3-(4-morpholinyl)propyl]-5-fluoro-2-methyl-3-(4-methoxybenzoyl)-1H-indole hydrochloride hydrate]: 58 mg/kg; for `COc1ccc(C(=O)c2c(C)n(CC(O)CN3CCCC3)c3ccc(F)cc23)cc1` (stereo not shown) [Example 31C]: 53 mg/kg; for `COc1ccc(C(=O)c2c(C)n(CC(O)CN3CCOCC3)c3ccccc23)cc1` (stereo not shown) [Example 31G]: 133 mg/kg.

For `COc1ccc(C(=O)c2c(C)n(CC(O)CN3CCCC3)c3ccccc23)cc1` (stereo not shown) [Example 31H], the ED50 amounted to 56 mg/kg.

For the compound `COc1ccc(C(=O)c2c(C)n(CC(O)CN3CCC3)c3ccccc23)cc1` (stereo not shown) [Example 31K], the median effective dose (ED50) stood at 28 mg/kg. Regarding `COc1ccc(C(=O)c2c(C)n(CC(O)CN(C)C)c3ccccc23)cc1` (stereo not shown) [Example 31L], the ED50 was determined as 32 mg/kg.

For `COc1ccc(C(=O)c2c(C)n(CC(O)CNC(C)C)c3ccccc23)cc1` (stereo not shown) [Example 31M], the ED50 stood at 26 mg/kg. For the compound `COc1ccc(C(=O)c2c(C)n(CC(O)CN)c3ccccc23)cc1` (stereo not shown) [Example 32, 1-(3-amino-2-hydroxy-1-propyl)-2-methyl-3-(4-methoxybenzoyl)-1H-indole], the ED50 was 85 mg/kg.
